Data reported in PubChem BioAssay (NCI).
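Method: 48-hour compound exposure of cells in 96-well plates, five concentrations, linear interpolation of endpoints. Abbreviation: GI50, concentration required for 50% inhibition of growth. TGI: concentration producing complete growth inhibition.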

What was measured:
Experiment in all cases: NCI anticancer screen, dose series, 48 h
HOP-62 NSCLC = test system: HOP-62 NSCLC
UACC-257 melanoma = test system: UACC-257 melanoma
SNB-75 CNS = test system: SNB-75 CNS
CAKI-1 renal = test system: CAKI-1 renal
COLO 205 colon = test system: COLO 205 colon
SW-620 colon = test system: SW-620 colon
OVCAR-5 ovarian = test system: OVCAR-5 ovarian
TK-10 renal = test system: TK-10 renal
SR leukemia = test system: SR leukemia
HS 578T breast = test system: HS 578T breast

SMILES	GI50 (HOP-62 NSCLC) [µM]	TGI (HOP-62 NSCLC) [µM]	GI50 (UACC-257 melanoma) [µM]	TGI (UACC-257 melanoma) [µM]	GI50 (SNB-75 CNS) [µM]	TGI (SNB-75 CNS) [µM]	GI50 (CAKI-1 renal) [µM]	TGI (CAKI-1 renal) [µM]	GI50 (COLO 205 colon) [µM]	TGI (COLO 205 colon) [µM]	GI50 (SW-620 colon) [µM]	TGI (SW-620 colon) [µM]	GI50 (OVCAR-5 ovarian) [µM]	TGI (OVCAR-5 ovarian) [µM]	GI50 (TK-10 renal) [µM]	TGI (TK-10 renal) [µM]	GI50 (SR leukemia) [µM]	TGI (SR leukemia) [µM]	GI50 (HS 578T breast) [µM]	TGI (HS 578T breast) [µM]
c1cncc(C2ONC3=NCCN32)c1 (centres undefined)	30	91.1	> 100	> 100	22.4	98.1	8.92	42.2	27.7	> 100	35.5	> 100	58.3	> 100	10.9	70.6	–	–	–	–
CCCCC[C@@H](C/C=C/CCC(=O)NC/C(=C/Cl)[C@H]1C(=O)C(C)(C)C(=O)[C@@H](C)[C@@]1(C)O)OC	–	–	18.4	34.3	20.5	44.7	18.2	34.1	18.5	33.6	20.8	39.3	18.9	34.7	20.8	40.5	20.7	41.3	–	–
O=C(c1ccccc1)C(Br)C(Br)c1ccccc1 (centres undefined)	–	–	3.2	8.04	12.1	25.6	1.6	3.34	1.92	3.5	1.69	3.28	14.5	27.7	1.59	3.01	–	–	–	–
COc1cc(/C=C\c2cc(OC)c(OC)c(OC)c2)cc(NS(=O)(=O)c2ccc(Cl)cc2)c1OC	0.414	> 100	12.5	> 100	–	–	0.374	50	0.253	0.652	0.343	> 100	0.726	> 100	0.779	99.6	0.406	10.5	0.351	> 100
Nc1nc(=S)[nH]c(C(=O)Nc2nccs2)c1-c1ccccc1	–	> 100	–	> 100	–	> 100	–	> 100	–	> 100	–	> 100	–	> 100	–	> 100	–	> 100	–	–
COCC1N=C(c2cc(OC)c(OC)c(OC)c2-c2cc3c(cc2[C@H](C)O)OCO3)O[C@H]1c1ccccc1 (some centres undefined)	–	–	–	–	–	> 100	–	–	–	85.2	–	> 100	–	–	–	> 100	–	–	–	–
COc1ccc(C(=O)O/N=C2/CCCCC2CN(C)C)cc1 (centres undefined)	–	> 100	–	> 100	–	> 100	–	> 100	–	> 100	–	> 100	–	> 100	–	> 100	–	> 100	–	–
Oc1ccccc1C=Nc1nc(OCc2ccccc2)nc2[nH]ncc12	26.2	84.8	34.2	> 100	–	–	14.2	50.5	22.2	49.6	27.4	76.1	27.2	83.9	10.6	32.8	13.1	39.5	19.2	56.9
